Results from patent US20030069276A1, “Amino piperidine derivatives” (priority 2001, published 2003).
pIC50: −log10 of the molar value.

Target: human CCR5 (Homo sapiens, UniProt P51681)
Test: gp120-sCD4-CCR5 binding assay (FACS)
Settings: CHO-K1 cell line stably transfected with the human CCR5 gene; biotinylated gp120 (JRFL strain) and soluble recombinant CD4; 1% DMSO
Procedure: gp120-sCD4-CCR5 Binding Assay:
The gp120-sCD4-CCR5 binding assay was carried out as previously described (Dragic, T., A. Trkola, et al. (2000). “A binding pocket for a small molecule inhibitor of HIV-1 entry within the transmembrane helices of CCR5.” Proc Natl Acad Sci USA 97: 5639-44.) with the following minor modifications: the cell line used for these experiments was a CHO-K1 cell line stably transfected with the human CCR5 gene; the gp120-CD4 complex comprised recombinant biotinylated gp120 (JRFL strain) and soluble recombinant CD4; and all compounds were tested in a final concentration of 1% DMSO.
All reagents and cell lines were obtained from Progenics Pharmaceuticals Inc, Tarrytown, N.Y., USA, and are commercially available or can be prepared according to the methods described and the information given in the papers above.

Sequence of human CCR5 (P51681 whole entry): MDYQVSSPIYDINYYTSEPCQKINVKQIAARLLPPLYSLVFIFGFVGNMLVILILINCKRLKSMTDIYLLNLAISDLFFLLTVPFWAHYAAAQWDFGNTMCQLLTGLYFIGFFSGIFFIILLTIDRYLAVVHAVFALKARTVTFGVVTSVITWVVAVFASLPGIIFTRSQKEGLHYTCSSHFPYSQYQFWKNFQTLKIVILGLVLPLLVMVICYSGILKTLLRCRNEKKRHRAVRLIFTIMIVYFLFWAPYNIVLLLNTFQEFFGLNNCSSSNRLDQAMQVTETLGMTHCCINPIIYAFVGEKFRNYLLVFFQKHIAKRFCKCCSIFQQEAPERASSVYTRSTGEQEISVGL

pIC50	Structure (SMILES)
7.52	Cc1ccc(-c2nc(CN3CCC(N(Cc4ccccc4)C(=O)Nc4ccccc4)CC3)c(C)[nH]2)cc1 [1-Benzyl-1-[1-[5-methyl-2-(4-methylphenyl)-1H-imidazol-4-ylmethyl]-4-piperidinyl]-3-phenylurea]
6.35	Cc1[nH]c(-c2ccc(C(F)(F)F)cc2)nc1CN1CCC(N(Cc2ccccc2)C(=O)Nc2ccc([N+](=O)[O-])cc2)CC1 [1-Benzyl-1-[1-[[2-[4-(trifluoromethyl)phenyl]-5-methyl-1H-imidazol-4-yl]methyl]-4-piperidinyl]-3-(4-nitrophenyl)urea]
5.96	CNC(=O)N(Cc1ccccc1)C1CCN(Cc2c(C)nc(-c3ccc(C(F)(F)F)cc3)n2Cc2ccccc2)CC1 [1-Benzyl-1-[1-[[3-benzyl-5-methyl-2-[4-(trifluoromethyl)phenyl]-3H-imidazol-4-yl]methyl]-4-piperidinyl]-3-methylurea]
5.02	CNC(=O)N(Cc1ccccc1)C1CCN(Cc2nc(-c3ccccc3OC)[nH]c2C)CC1 [1-Benzyl-1-{1-[2-(2-methoxy-phenyl)-5-methyl-1H-imidazol-4-ylmethyl]-piperidin-4-yl}-3-methyl-urea]
6.96	CNC(=O)N(Cc1ccccc1)C1CCN(Cc2nc(-c3ccc(C(F)(F)F)cc3)[nH]c2C)CC1 [1-Benzyl-3-methyl-1-[1-[[5-methyl-2-[4-(trifluoromethyl)phenyl]-1H-imidazol-4-yl]methyl]-4-piperidinyl]urea]
4.72	CNC(=O)N(Cc1ccccc1)C1CCN(Cc2nc(-c3ccc(C(F)(F)F)cc3)[nH]c2-c2ccccc2)CC1 [1-Benzyl-3-methyl-1-[1-[[5-phenyl-2-[4-(trifluoromethyl)phenyl]-1H-imidazol-4-yl]methyl]-4-piperidinyl]urea]
